From patent US20210009630A1, “CYCLIC DINUCLEOTIDES AS STING AGONISTS” (Janssen Biotech, Inc., priority 2017, published 2021) come the findings set out here.

pEC50, pIC50, pKd: −log10 of the molar value.

The subject of experiment [1] is THP1-Blue ISG cells (IFN-β secretion). The experiment can be described thus: Human interferon-β induction assay. The experiment is classed as cell-based. As to conditions: total cumulative IFN-β induction over the dose range tested (0.78 to 50 uM) in THP-1 cells after a 24 hour exposure. As to the method:
THP1-Blue ISG cells are used to measure the secretion of IFN-β into the culture supernatant following STING pathway activation. To run the assay, anti-IFN-β capture antibodies were coated on […] well MultiArray plates (Mesoscale Discovery). After a one hour incubation, plates were washed and 50 μL supernatant from the STING human cell reporter assay plates or IFN-β standards were mixed with 20 μL Sulfotag-conjugated detection antibody in the coated plates. Plates were incubated, shaking for 2 h, washed, and read buffer was applied. Electrochemiluminescence was measured on the SectorImager.

The target of experiment [2] is T1, human STING (E. coli produced truncated STING protein) (Homo sapiens, UniProt Q86WV6, H232R).
T1 construct: contains residues 139-379 of Q86WV6 with an R at position 232 (H232R); HIS tag (N, cleaved yes); made in house; host or cells: E. coli
The experiment can be described thus: STING SPR binding assay. Conditions: steady state affinity, 1:1 binding model, 25° C. As to the method: Compounds were analyzed on an S200 biacore SPR instrument (GE Healthcare). E. coli produced truncated STING protein was immobilized on a series S streptavidin chip via biotin capture (GE Healthcare #BR100531) with. […] Steady state affinity and kinetic evaluations were carried out using 1:1 binding model (STING was treated as a dimer). Run parameters were as follows: 60 sec on, 300 sec off for the IFM compounds, cyclic-di-GMP (60 sec on/60 sec off), thiol isomer 1 (60 sec on/300 sec off) and cGAMP (60 sec on/1200 sec off) with a flow rate of 50 μL/min and data collection at 40 Hz at 25° C.
For orientation: In SPR one partner is held on a chip, and binding of the other changes the refractive index at the surface.

For experiment [3], the system named is human STING pathway (THP1-ISG cells). Description: STING human cell reporter assay. The experiment is classed as cell-based. As to conditions: Homo sapiens, IRF-inducible SEAP reporter, 24 h, means of at least three values. The procedure:
Agonism of the human STING pathway is assessed in THP1-ISG cells (Invivogen, cat #thp-isg) derived from human THP1 monocyte cell line by stable integration of an interferon regulatory factor (IRF)-inducible SEAP reporter construct. THP1-Blue ISG cells express a secreted embryonic alkaline phosphatase (SEAP) reporter gene under the control of an ISG54 minimal promoter in conjunction with five interferon (IFN)-stimulated response elements. As a result, THP1-Blue ISG cells allow the monitoring of IRF activation by determining the activity of SEAP. The levels of IRF-induced SEAP in the cell culture supernatant are readily assessed with alkaline phosphatase detection medium, a SEAP detection reagent. These cells are resistant to Zeocin. 2′3′cGAMP was used as a positive control in this assay. To run the assay, 60,000 cells were dispensed in 30 μL/well of a white, opaque bottom tissue culture treated 384-well plate.
Test compounds were added in a volume of 10 μL (1% DMSO final concentration). Compounds are initially prepared in 100% DMSO, spotted on an compound dilution plate and then diluted in media prior to transfer. The assay was incubated for 24 h at 37° C., 5% CO2 then plates were centrifuged at 1200 rpm (120×g) for 5 min. After final incubation, 90 μL of alkaline phosphatase detection medium-substrate was added to each well of a new 384-well clear plate and 10 μL of the cell supernatant was transferred from the assay plate to the new alkaline phosphatase detection medium-plate using a Biomek FX and mixed 4 times. Plates were incubated at RT for 20 min then absorbance at 655 nm was determined on the Tecan Safire2.

Experiment [4] has as its target human STING (biotinylated STING protein, residues 139-379 of Q86WV6, H232R) (Homo sapiens, UniProt Q86WV6, H232R). The experiment can be described thus: STING SPA binding assay.
Experimental: The HIS tag is cleaved after purification and prior to biotinylation.
Test compounds (80 nL) were added with an acoustic dispenser (EDC Biosystems) in 100% DMSO for a final assay concentration of 1% DMSO. Plates were centrifuged for 1 min and incubated for 60 min at room temperature. […] Plates were dark adapted for 2 h and read on a ViewLux (Perkin Elmer) for 12 min per plate.
Experiment [5] relates to CT26 colon carcinoma tumor. The experiment can be described thus: STING in vivo activity, mouse CT26 tumor model. Conditions: 0.05 mg intratumorally every three days, three doses, 8 mice per group; for In vivo activity (% TGI): CT26 tumors in Balb/c mice. The procedure:
For all studies, female Balb/c mice were obtained from Charles River Labs (Wilmington, Mass.) and used when they were 6-8 weeks of age and weighed approximately 20 g. All animals were allowed to acclimate and recover from any shipping-related stress for a minimum of 5 days prior to experimental use. Reverse osmosis chlorinated water and irradiated food (Laboratory Autoclavable Rodent Diet 5010, Lab Diet) were provided ad libitum, and the animals were maintained on a 12 h light and dark cycle. Cages and bedding were autoclaved before use and changed weekly. All experiments were carried out in accordance with The Guide for the Care and Use of Laboratory Animals and were approved by the Institutional Animal Care and Use Committee of Janssen R & D, Spring House, Pa. Each experimental group contained 8 mice. In vivo efficacy in a mouse CT26 tumor model was determined by implanting 500,000 CT26 colon carcinoma tumor cells subcutaneously into Balb/c mice and allowing tumors to establish to 100-300 mm^3. Compounds were injected intratumorally formulated in phosphate buffered saline in a volume of 0.1 mL Per injection. Mice were administered 0.05 mg every three days for a total of three doses. Efficacy was measured as the percent tumor growth inhibition (TGI) calculated by the reduction in size of the Treated tumor volume (T) over the Control tumor volume (C) according to the following formula. ((C−T)/(C))*100 when all control animals were still on study. Cures were defined as the number of animals with no measurable tumor detected 10 tumor volume doubling times (TVDT) after the last dose was administered.

T1 sequence (Q86WV6 139-379 H232R): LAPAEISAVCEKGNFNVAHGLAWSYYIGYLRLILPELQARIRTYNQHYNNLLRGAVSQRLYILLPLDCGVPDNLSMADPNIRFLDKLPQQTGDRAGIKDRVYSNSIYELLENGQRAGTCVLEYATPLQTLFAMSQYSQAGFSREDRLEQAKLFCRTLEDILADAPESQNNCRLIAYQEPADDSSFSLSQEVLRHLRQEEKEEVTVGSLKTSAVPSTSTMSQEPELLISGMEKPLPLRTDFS
human STING (biotinylated STING protein, residues 139-379 of Q86WV6, H232R), sequence (Q86WV6 139-379 H232R, one chain of several): as the sequence (Q86WV6 139-379 H232R) above

For orientation: pKd means the negative decadic logarithm of the Kd, by convention in mol/L. Read a high pKd as a low Kd. As a reminder, the pEC50 is −log10 of the EC50, conventionally taken in molar units. A word on the pIC50: it is the IC50 on a negative log10 scale, so that one unit is a factor of ten. Low values mean a large IC50, high ones a small IC50. Take `CO[C@H]1[C@H]2OP(=O)(O)OC[C@H]3O[C@@H](n4cnc5c(N)ncnc54)C[C@@H]3NS(=O)(=O)OC[C@H]1O[C@H]2n1cnc2c(=O)[nH]c(N)nc21` [Compound 20]: the “human IFN-β (ranking value)” value in experiment [1] came out at 6045 pg/mL. Besides, the pKd in experiment [2] was 8.09. The same compound had a pEC50 in experiment [3] of around 6.66. Besides, in experiment [4], the pIC50 is 7.33.

Regarding `CO[C@H]1[C@H]2OS(=O)(=O)NC[C@]34CO[C@H](C3OP(=O)(O)OC[C@H]1O[C@H]2n1cnc2c(=O)[nH]c(N)nc21)[C@H](n1cnc2c(N)ncnc21)O4` (stereo partly shown) [Compound 9], the “human IFN-β (ranking value)” value in experiment [1] worked out at 8104 pg/mL. Moreover, the pKd in experiment [2] was 6.55. Further, the pEC50 in experiment [3] is 6.96. Besides, the pIC50 in experiment [4] was 5.55.

Consider `CO[C@H]1[C@H]2OS(=O)(=O)NC[C@H]3O[C@@H](n4cnc5c(N)ncnc54)[C@H](F)[C@@H]3OP(=O)(O)OC[C@H]1O[C@H]2n1cnc2c(=O)[nH]c(N)nc21` [Compound 1], for which the “human IFN-β (ranking value)” value in experiment [1] amounted to 7930 pg/mL. The compound further had a pKd in experiment [2] of 8.92. In experiment [5], the “In vivo activity (% TGI)” value stood at 108.9%. The “In vivo activity (cures)” value in experiment [5] (number of animals with no measurable tumor 10 tumor volume doubling times after the last dose) is on record as 6. The pEC50 in experiment [3] was 7.11. In experiment [4], this compound showed a pIC50 of 8.34.

For the compound `CO[C@H]1[C@H]2OP(=O)(O)OC[C@@]34CO[C@@H]([C@H](n5cnc6c(N)ncnc65)O3)[C@@H]4OS(=O)(=O)NC[C@H]1O[C@H]2n1cnc2c(=O)[nH]c(N)nc21` [Compound 25], in experiment [1], the “human IFN-β (ranking value)” value stood at 6595 pg/mL. In addition, the pKd in experiment [2] was 5.46. Besides, the “In vivo activity (% TGI)” value in experiment [5] amounted to 88.9%. In experiment [3], this compound had a pEC50 of 7.00. This compound also showed a negative-log IC50 (pIC50) in experiment [4] of 4.53.
